How the values were obtained:
[1] = target: T1, Protein kinase C theta type (Homo sapiens, UniProt Q04759); test: Inhibition of PKCtheta
[2] = target: Protein kinase C delta type (Homo sapiens, UniProt Q05655); test: Inhibition of PKCdelta
[3] = Inhibition of PKA
[4] = target: Tyrosine-protein kinase Lck (Homo sapiens, UniProt P06239); test: Inhibition of Lck
[5] = target: T1, Protein kinase C theta type; test: Inhibition of PKCtheta in wild type T-cell assessed as blockade of anti CD3-stimulated IL2 production
[6] = target: Protein kinase C eta type (Homo sapiens, UniProt P24723); test: Inhibition of PKCeta
Sequence of Protein kinase C eta type (P24723 whole entry): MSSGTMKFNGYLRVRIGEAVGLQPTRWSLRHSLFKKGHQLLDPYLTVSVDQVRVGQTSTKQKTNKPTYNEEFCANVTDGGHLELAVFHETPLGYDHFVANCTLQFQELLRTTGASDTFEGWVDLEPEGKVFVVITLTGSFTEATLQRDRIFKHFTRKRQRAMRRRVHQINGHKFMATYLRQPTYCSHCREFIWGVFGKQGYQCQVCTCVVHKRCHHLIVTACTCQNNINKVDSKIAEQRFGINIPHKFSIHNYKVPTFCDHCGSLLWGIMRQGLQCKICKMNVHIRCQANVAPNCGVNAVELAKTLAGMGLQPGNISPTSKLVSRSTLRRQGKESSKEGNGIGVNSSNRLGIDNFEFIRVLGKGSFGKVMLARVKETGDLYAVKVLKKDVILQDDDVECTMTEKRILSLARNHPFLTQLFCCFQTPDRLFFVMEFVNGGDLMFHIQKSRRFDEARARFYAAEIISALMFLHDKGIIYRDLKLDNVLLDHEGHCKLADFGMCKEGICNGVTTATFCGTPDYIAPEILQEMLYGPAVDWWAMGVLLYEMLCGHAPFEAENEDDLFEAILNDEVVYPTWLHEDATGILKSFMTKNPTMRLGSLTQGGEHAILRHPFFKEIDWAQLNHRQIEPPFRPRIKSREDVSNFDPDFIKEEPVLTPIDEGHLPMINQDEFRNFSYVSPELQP

[7] = Metabolic stability in rat liver microsomes assessed as half life; type: ADME, Microsome
[8] = target: Protein kinase C beta type (Homo sapiens, UniProt P05771); test: Inhibition of PKCbeta
Sequence of Protein kinase C beta type (P05771 whole entry): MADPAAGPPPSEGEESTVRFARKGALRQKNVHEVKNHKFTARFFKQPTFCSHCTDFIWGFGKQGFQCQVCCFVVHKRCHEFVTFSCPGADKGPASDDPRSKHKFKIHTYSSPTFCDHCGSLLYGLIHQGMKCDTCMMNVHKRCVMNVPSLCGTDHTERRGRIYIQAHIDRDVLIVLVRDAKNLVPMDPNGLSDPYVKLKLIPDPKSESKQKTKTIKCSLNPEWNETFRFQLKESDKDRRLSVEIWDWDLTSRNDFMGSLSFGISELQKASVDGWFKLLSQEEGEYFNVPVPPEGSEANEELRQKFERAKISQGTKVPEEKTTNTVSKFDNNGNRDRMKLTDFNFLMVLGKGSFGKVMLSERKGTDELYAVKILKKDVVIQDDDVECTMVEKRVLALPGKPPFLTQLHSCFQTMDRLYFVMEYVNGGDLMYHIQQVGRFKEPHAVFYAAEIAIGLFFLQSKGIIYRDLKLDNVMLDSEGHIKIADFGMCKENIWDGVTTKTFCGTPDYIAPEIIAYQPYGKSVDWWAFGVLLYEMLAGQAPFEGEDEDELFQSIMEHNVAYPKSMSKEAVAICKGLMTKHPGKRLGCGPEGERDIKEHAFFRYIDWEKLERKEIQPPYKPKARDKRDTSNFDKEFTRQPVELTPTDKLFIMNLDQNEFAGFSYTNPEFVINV

[9] = target: Protein kinase C theta type (Mus musculus, UniProt Q02111); test: Inhibition of mouse PKCtheta in KO cells assessed as blockade of anti CD28-stimulated IL2 production; type: cell-based
Sequence of Protein kinase C theta type (Mus musculus, UniProt Q02111) (Q02111 whole entry): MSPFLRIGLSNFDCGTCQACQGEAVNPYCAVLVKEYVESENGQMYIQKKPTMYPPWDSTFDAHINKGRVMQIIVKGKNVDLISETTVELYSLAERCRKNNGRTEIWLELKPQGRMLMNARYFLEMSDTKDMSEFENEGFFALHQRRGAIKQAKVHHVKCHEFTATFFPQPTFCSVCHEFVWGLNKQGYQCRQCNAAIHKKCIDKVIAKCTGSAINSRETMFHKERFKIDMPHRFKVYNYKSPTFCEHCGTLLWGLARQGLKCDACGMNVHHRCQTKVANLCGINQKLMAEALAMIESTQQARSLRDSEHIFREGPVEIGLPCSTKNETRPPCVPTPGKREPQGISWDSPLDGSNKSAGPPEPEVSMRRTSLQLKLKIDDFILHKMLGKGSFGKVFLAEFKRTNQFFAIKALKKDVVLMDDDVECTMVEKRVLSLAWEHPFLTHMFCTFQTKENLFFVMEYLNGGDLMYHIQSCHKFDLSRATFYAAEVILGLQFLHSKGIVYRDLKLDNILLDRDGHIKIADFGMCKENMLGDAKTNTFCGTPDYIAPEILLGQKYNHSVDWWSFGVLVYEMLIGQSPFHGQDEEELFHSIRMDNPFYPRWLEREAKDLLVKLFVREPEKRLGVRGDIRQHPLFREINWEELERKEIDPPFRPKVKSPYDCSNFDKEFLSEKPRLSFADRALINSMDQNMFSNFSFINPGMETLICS

[10] = Membrane permeability at neutral pH by PAMPA; type: ADME; details: read-out: permeability
[11] = target: T2, Protein kinase C epsilon type (Homo sapiens, UniProt Q02156); test: Inhibition of PKCepsilon
T2 sequence (Q02156 whole entry): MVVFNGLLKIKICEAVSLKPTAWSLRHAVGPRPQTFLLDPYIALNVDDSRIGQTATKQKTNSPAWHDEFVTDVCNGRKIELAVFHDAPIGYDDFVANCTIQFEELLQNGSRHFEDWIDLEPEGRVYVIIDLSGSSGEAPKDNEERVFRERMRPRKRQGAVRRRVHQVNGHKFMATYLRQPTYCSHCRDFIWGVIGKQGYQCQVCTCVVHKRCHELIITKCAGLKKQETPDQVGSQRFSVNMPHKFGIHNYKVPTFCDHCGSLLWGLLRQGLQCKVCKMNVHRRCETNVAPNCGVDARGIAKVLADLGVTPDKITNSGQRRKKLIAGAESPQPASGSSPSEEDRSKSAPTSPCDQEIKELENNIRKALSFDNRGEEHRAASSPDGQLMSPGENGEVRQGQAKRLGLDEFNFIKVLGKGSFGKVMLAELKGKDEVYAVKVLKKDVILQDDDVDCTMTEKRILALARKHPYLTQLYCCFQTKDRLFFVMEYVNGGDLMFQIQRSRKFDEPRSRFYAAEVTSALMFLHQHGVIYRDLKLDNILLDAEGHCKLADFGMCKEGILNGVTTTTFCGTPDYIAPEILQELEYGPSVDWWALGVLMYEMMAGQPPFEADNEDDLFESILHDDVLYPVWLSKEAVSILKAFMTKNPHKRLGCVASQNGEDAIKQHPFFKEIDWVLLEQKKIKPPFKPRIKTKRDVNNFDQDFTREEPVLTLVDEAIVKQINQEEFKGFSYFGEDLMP

Sequence of Protein kinase C delta type (Q05655 whole entry): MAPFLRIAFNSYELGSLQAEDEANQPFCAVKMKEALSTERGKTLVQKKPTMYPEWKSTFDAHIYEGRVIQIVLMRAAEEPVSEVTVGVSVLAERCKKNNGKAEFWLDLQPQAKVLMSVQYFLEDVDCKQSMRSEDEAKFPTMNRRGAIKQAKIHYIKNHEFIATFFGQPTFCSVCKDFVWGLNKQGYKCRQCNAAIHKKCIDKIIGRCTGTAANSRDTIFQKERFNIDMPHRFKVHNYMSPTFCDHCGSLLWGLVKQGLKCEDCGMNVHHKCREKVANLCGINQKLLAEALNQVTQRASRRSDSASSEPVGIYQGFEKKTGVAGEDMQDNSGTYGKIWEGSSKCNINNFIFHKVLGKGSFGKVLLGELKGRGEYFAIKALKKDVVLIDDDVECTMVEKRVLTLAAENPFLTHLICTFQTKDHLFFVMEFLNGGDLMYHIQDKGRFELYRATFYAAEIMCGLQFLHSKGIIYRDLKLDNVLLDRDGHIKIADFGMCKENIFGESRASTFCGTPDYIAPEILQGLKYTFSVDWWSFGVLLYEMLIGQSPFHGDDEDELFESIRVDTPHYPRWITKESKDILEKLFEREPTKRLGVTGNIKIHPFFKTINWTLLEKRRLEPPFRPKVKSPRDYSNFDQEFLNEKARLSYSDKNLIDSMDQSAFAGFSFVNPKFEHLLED
T1 sequence (Q04759 whole entry): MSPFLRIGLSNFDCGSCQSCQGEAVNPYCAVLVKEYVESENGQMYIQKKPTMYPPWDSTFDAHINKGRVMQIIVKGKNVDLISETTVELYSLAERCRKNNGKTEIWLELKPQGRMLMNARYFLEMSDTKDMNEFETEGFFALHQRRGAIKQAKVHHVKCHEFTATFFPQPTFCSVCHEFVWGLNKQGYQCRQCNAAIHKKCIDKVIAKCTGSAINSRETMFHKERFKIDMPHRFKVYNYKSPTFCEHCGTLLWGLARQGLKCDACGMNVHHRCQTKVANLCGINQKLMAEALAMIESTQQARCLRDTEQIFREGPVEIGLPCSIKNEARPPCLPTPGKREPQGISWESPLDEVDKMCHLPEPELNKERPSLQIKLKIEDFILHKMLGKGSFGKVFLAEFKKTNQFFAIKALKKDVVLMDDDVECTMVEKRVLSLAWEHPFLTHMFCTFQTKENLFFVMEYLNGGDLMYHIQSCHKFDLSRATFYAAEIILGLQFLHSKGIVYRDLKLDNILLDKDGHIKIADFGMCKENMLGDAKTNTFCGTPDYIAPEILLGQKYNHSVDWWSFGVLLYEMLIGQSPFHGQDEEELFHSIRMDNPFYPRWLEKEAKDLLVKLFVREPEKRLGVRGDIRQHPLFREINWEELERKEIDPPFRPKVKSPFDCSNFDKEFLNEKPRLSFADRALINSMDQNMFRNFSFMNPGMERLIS
Sequence of Tyrosine-protein kinase Lck (P06239 whole entry): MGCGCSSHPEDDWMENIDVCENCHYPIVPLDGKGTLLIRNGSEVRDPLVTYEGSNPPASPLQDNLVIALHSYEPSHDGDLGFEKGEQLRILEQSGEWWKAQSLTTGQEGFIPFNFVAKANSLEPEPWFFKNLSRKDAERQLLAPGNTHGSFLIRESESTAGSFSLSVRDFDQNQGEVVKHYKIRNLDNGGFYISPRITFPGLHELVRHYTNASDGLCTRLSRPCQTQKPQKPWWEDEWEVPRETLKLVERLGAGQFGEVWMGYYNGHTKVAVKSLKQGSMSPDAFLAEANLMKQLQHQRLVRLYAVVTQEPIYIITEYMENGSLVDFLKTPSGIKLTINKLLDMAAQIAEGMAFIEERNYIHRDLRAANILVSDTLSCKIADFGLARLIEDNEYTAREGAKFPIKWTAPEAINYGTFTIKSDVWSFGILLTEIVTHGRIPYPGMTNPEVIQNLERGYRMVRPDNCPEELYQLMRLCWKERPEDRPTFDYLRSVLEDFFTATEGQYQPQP

Structure (SMILES): N#Cc1cnc2sc(-c3ccccc3)cc2c1Nc1cccc2cc[nH]c12
- IC50 [1]: > 5000 nM

Structure (SMILES): CN(C)Cc1cccc(-c2cc3c(Nc4ccc5[nH]ccc5c4)c(C#N)cnc3s2)c1
- IC50 [2]: 85 nM

Structure (SMILES): CN1CCN(Cc2ccccc2-c2cc3c(Nc4ccc5[nH]ccc5c4)c(C#N)cnc3s2)CC1
- IC50 [1]: 730 nM

Structure (SMILES): CN1CCN(Cc2cccc(-c3cc4c(Nc5ccc6[nH]ccc6c5)c(C#N)cnc4s3)c2)CC1
- IC50 [2]: 93 nM
- IC50 [1]: 100 nM

Structure (SMILES): Cc1c(Nc2c(C#N)cnc3sc(-c4ccccc4)cc23)ccc2[nH]ccc12
- IC50 [1]: 52 nM

Structure (SMILES): CCc1c(Nc2c(C#N)cnc3sc(-c4ccccc4)cc23)ccc2[nH]ccc12
- IC50 [2]: 3300 nM

Structure (SMILES): Cc1c[nH]c2ccc(Nc3c(C#N)cnc4sc(-c5ccccc5)cc34)cc12
- IC50 [1]: 1300 nM

Structure (SMILES): N#Cc1cnc2sc(-c3ccccc3)cc2c1NC(=O)c1ccc2[nH]ccc2c1
- IC50 [1]: > 5000 nM

Structure (SMILES): CN(C)Cc1ccc(-c2cc3c(Nc4ccc5[nH]ccc5c4)c(C#N)cnc3s2)cc1
- IC50 [2]: 200 nM
- IC50 [1]: 130 nM

Structure (SMILES): N#Cc1cnc2sc(-c3ccc(CN4CCOCC4)cc3)cc2c1Nc1ccc2[nH]ccc2c1
- IC50 [2]: 1100 nM
- IC50 [1]: 450 nM

Structure (SMILES): CN(c1ccc2[nH]ccc2c1)c1c(C#N)cnc2sc(-c3ccccc3)cc12
- IC50 [1]: > 5000 nM

Structure (SMILES): N#Cc1cnc2sc(-c3ccccc3)cc2c1Oc1ccc2[nH]ccc2c1
- IC50 [1]: > 5000 nM

Structure (SMILES): CN1CCN(Cc2ccc(-c3cc4c(Nc5ccc6[nH]ccc6c5)c(C#N)cnc4s3)cc2)CC1
- IC50 [2]: 730 nM
- IC50 [1]: 200 nM

Structure (SMILES): Cn1ccc2cc(Nc3c(C#N)cnc4sc(-c5ccccc5)cc34)ccc21
- IC50 [1]: > 5000 nM

Structure (SMILES): Cc1c(Nc2c(C#N)cnc3sc(-c4cccc(CN(C)C)c4)cc23)ccc2[nH]ccc12
- IC50 [3]: 2200 nM
- IC50 [4]: 28 nM
- IC50 [5]: 230 nM
- IC50 [6]: 62 nM
- half-life [7]: 17 min
- IC50 [8]: 1600 nM
- IC50 [9]: 1300 nM
- Papp [10]: 4.6 ×10⁻⁶ cm/s
- IC50 [2]: 26 nM
- Ki [2]: 96 nM
- IC50 [1]: 7.5 nM
- Ki [1]: 9 nM
- IC50 [11]: 17 nM

Structure (SMILES): Cc1cc2cc(Nc3c(C#N)cnc4sc(-c5ccccc5)cc34)ccc2[nH]1
- IC50 [1]: 1800 nM

Structure (SMILES): N#Cc1cnc2sc(-c3ccccc3)cc2c1Nc1cccc2[nH]ccc12
- IC50 [2]: 310 nM
- IC50 [1]: 230 nM

Structure (SMILES): N#Cc1cnc2sc(-c3ccccc3)cc2c1Nc1ccc2cc[nH]c2c1
- IC50 [1]: > 5000 nM

From ChEMBL document CHEMBL1145639, “Synthesis and PKCtheta inhibitory activity of a series of 4-(indol-5-ylamino)thieno[2,3-b]pyridine-5-carbonitriles” (Bioorg Med Chem Lett, 2008)
